Experimental data published in article PMC4383003, “Transfer hydrogenation catalysis in cells as a new approach to anticancer drug design” (Nature Communications, 2015).
Values joined by “and” are separate entries in the source; they are usually repeats but may differ in a detail not shown here. Equal values may be shown once.

Columns and labels:
[1] = pKa* of aqua adducts of the complexes; type: physicochemical; conditions: pKa value determined in deuterated solvent
Description: Table 1 pKa* values for aqua adducts of catalysts 1–4 (and 8 for comparison) and turnover frequencies for transfer hydrogenation of NAD^+ using formate. | column: pKa*

[2] = Transfer hydrogenation of NAD+ to 1,4-NADH with formate, followed by 1H NMR
Protocol: Complexes 1–7 were dissolved in MeOH-d4/D2O (5:1 v/v, 1.4 mM, 4 ml). Solutions of sodium formate (35 mM, 4 ml) and NAD^+ in D2O (2.8 mM, 2 ml) were also prepared and incubated at 310 K. In a typical experiment, 200-μl aliquots of each solution were added to a 5-mm NMR tube and the pH* adjusted to 7.2±0.1 (total volume 0.635 ml, final concentrations: Ru complex 0.44 mM; NAD^+ 0.88 mM; formate 11.02 mM; molar ratio 1:2:25). ^1H NMR spectra were recorded at 310 K every 162 s until the completion of the reaction.
Molar ratios of NAD^+ and NADH were determined by integrating the peaks at 9.33 and 6.96 p.p.m. (NAD^+ and 1,4-NADH, respectively). The turnover number for the reaction was calculated as follows: […]
where In is the integral of the signal at n p.p.m. and [NAD^+]0 is the concentration of NAD^+ at the start of the reaction.

[3] = tested on: A2780 human ovarian cancer cells; assay: In vitro growth inhibition assay (SRB), A2780; type: cell-based
Protocol: A2780 human ovarian carcinoma and MRC5 human fetal lung fibroblasts were obtained from the European Collection of Cell Cultures. Both cell lines were grown in Roswell Park Memorial Institute medium (RPMI-1640) supplemented with 10% of fetal calf serum, 1% of 2 mM glutamine and 1% penicillin/streptomycin. All cells were grown as adherent monolayers at 310 K in a 5% CO2-humidified atmosphere and passaged at ca. 70–80% confluency.
The antiproliferative activity of complexes 1–8 was determined in A2780 ovarian cancer cells and MRC5 fibroblasts. Briefly, 96-well plates were used to seed 5,000 cells per well. The plates were left to pre-incubate with drug-free medium at 310 K for 48 h before adding different concentrations of the compounds to be tested. A drug exposure period of 24 h was allowed. After this, supernatants were removed by suction and each well was washed with PBS. A further 72 h were allowed for the cells to recover in drug-free medium at 310 K. The sulforhodamine B (SRB) assay was used to determine cell viability. IC50 values, as the concentration that causes 50% cell death, were determined as duplicates of triplicates in two independent sets of experiments and their s.d. were calculated.

9-ethylguanine = assay: Binding to model nucleobase 9-ethylguanine by 1H NMR; conditions: D2O, pH* 7.2 ± 0.1, 310 K
Protocol: Supplementary Table 4: Binding constants for formation of 9-EtG adducts of complexes 1-4 determined by 1H NMR. The experiments were performed in D2O, pH* 7.2 ± 0.1 and 310 K. Equilibrium was reached by the time the first 1H NMR spectrum was recorded (< 10 min). […]
DNA is believed to be the main target for [(bip)Ru(en)Cl]+ (8). Due to the structural similarity of the complexes 1-5 with complex 8, their binding to DNA was […]
Interaction with nucleobases
Initially, model nucleobases, 9-ethylguanine and 9-methyladenine were reacted with complexes 1-4 in D2O, 310 K and pH* 7.2 ± 0.1. The binding of the complexes to 9-EtG or 9-MeA was monitored by 1H-NMR spectroscopy. Peaks for the 9-EtG adducts were observed by the time the first spectrum was recorded (< 5 min after mixing), […]
equilibrium was reached rapidly. The binding constants for formation of 9-EtG adducts determined by NMR were between 60 and 106 mM-1 (Supplementary Table 4). These values are in the same range as that from the ethylenediamine complex [(bip)Ru(en)Cl]+ (K9-EtG= 60.3 mM-1),2 which also binds strongly to DNA.3, 4 The high resolution mass spectrum confirmed the formation of [(η6-arene)Ru(XEn)(9-EtG)]+ (Supplementary Table 5). The interaction of complexes 1-4 with 9-MeA was also investigated, but no reaction was detected by 1H-NMR.
It is well established that N7 of guanine is the preferred nucleotide binding site for many transition metals ions. 2-8 Furthermore, strong and selective binding to N7 of 9-EtG, has been observed for [(η6-arene)Ru(en)Cl]+.3, 4 A pH* titration of […]

[4] = tested on: A2780 ovarian cancer cells; assay: Cell viability on co-administration of Ru complexes (1/3 x IC50) with formate or acetate; type: cell-based, human; conditions: for Cell viability / Cell viability percentages: A2780, complex 1/3 x IC50, 24 h
Protocol: Cell viability assays were carried out with complexes 1–8 in A2780 ovarian cancer cells. These experiments were carried out as described above with the following modifications: a fixed concentration of each Ru complex equal to 1/3 × IC50 was used in co-administration with three different concentrations of sodium formate or sodium acetate (0.5, 1.0 and 2.0 mM). To prepare the stock solution of the drug, the complex was dissolved in 5% dimethylsulfoxide and diluted in a 1:1 mixture of 0.9% saline:cell culture medium. This stock was further diluted using RPMI-1640 until working concentrations were achieved. Separately, stock solutions of sodium formate or sodium acetate were prepared in saline. The complex and formate were added to each well independently, but within 5 min of each other.
Supplementary Table 7: Percent cell viability of A2780 ovarian cancer cells exposed to equipotent concentrations of ruthenium complexes 1-3 and 5-8 (1/3 x […]
The experiments included 48 h of pre-incubation and 72 h of drug recovery, both in drug-free medium at 310 K in a 5% CO2 humidified atmosphere. All the experiments were performed as duplicates of triplicates in independent experiments and the error bars were calculated as the standard deviation from the mean.
Supplementary Table 11: Cell viability (%) of A2780 ovarian cancer cells exposed […]
administered with different concentrations of sodium acetate (0, 0.5, 1 and 2 mM).
The experiments involved 48 h of pre-incubation and 72 h of drug recovery, both in […]
Cell viability percentages (%)
Complex Acetate concentration (mM)

[5] = tested on: A2780 ovarian cancer cells; assay: Ruthenium accumulation in cancer cells (ICP-MS); type: cell-based, human; conditions: for Cell Ru: A2780, 1/3 x IC50, 24 h drug exposure, no recovery time; for Cell accum.: A2780, 24 h, 1/3 x IC50
Protocol: Briefly, 1.5 × 10^6 cells per well were seeded on a six-well plate. […] After this time, cells were washed, treated with trypsin-EDTA, counted and cell pellets were collected. Each pellet was digested overnight in concentrated nitric acid (73%) at 353 K; the resulting solutions were diluted using double-distilled water to give a final concentration of 5% HNO3 and the amount of Ru taken up by the cells was determined by ICP–MS. […]
Supplementary Table 3: Antiproliferative activity of complexes 1-8 in A2780 ovarian cancer cells and their cellular accumulation (expressed as ng Ru per million cells).
The latter experiments were carried out using equipotent concentrations of the […]
experiments were performed as duplicates of triplicates in independent experiments and the error bars were calculated as the standard deviation from the mean. […]

calf thymus DNA = assay: Interaction with calf thymus DNA (ethanol precipitation, ICP-MS of Ru); type: binding; conditions: for free Ru in supernatant: CT-DNA, 1:3 complex:base pairs, 310 K
Protocol: Interaction with calf thymus DNA
Complex 2 was chosen as representative of the series. A stock solution of complex 2 (0.7 mM in 5 % acetonitrile/water) was prepared and aliquots of 66 μL were added to a solution of CT-DNA (final ratio 1:3 complex: base pairs-DNA) in water, 2 mM cacodylate buffer and 2 mM NaCl. The reaction mixture was incubated at 310 K, and aliquots of 300 μL were taken at different intervals during a period of 27 h. The DNA was then precipitated by addition of ethanol (700 μL, final concentration 70% v/v). Ru complexes which are strongly bound to CT-DNA will precipitate together with the DNA upon addition of ethanol, and, therefore the ruthenium concentration in the supernatant should decrease. However, no changes in the Ru concentration were detected by ICP-MS showing that the interaction between the complex 2 and DNA is weak (t = 0 h / 64.2 ± 0.7 µM, t = 24 h/ 65.1 ± 0 .3 µM free Ru). In contrast complex 8

CT-DNA = assay: Thermal stability (melting temperature) of CT-DNA by UV-Vis; type: binding, calf; conditions: for Tm: CT-DNA, 1:3 complex:base pairs, 2 mM cacodylate pH 7.4, 2 h 310 K
Protocol: Supplementary Table 6: Melting temperature (Tm) of CT-DNA in the presence of 8 or complex 2 (ratio 1:3, complex: base pairs-DNA). The reactions were carried out in cacodylate buffer (2 mM, pH 7.4), and samples incubated for 2 h at 310 K. […]
a variation in melting temperature between free DNA and DNA in the presence of the corresponding complex. * […] from free DNA using a T-test analysis. ** p < 0.01 from free DNA using a T-test analysis […]
Thermal stability of CT-DNA
The melting temperature of CT-DNA in the presence and absence of complex 2 [(p-cym)Ru(TsEn)Cl] was determined by UV-Vis spectroscopy (Supplementary Table 6). Higher melting temperatures indicate increased stabilization of the DNA, which is the effect produced by DNA-intercalators and often by direct metal coordination to […]
the nucleobases.11 Destabilization of DNA can result in a decrease of the melting […]
In the presence of complex 8, the melting temperature of CT-DNA increased In agreement with the literature, 12 by 14 K, in 2 mM NaCl, 2 mM cacodylate buffer.
This increase is due to Ru binding to DNA as well as intercalation. 12 However, upon increasing the chloride concentration by ca. 10x (20 mM NaCl) the melting temperature of CT-DNA in the presence of complex 8, increased only by 7 K. This effect has previously been reported and it is attributed to the partial inhibition of hydrolysis, and, therefore, inhibition of coordination to DNA. 12, 13
Experiments performed in the presence of complex 2, in 2 mM cacodylate buffer and […]
NaCl, no decrease of the melting temperature was observed. […]

[6] = A2780, 24 h drug exposure, no formate

Structure (SMILES)	IC50 ([3]; A2780, Supplementary Table 3) [µM]	Cell viability ([4]; formate 0 mM) [%]	Cell viability ([4]; formate 0.5 mM) [%]	Cell viability ([4]; formate 1 mM) [%]	Cell viability ([4]; formate 2 mM)	Cell Ru [5] [ng x 106 cells]	other results
Cc1ccc(C(C)C)cc1.NCC[N-]S(=O)(=O)c1ccc([N+](=O)[O-])cc1.[Cl-].[Ru+2] [Complex 4, [(p-cym)Ru(NO2En)Cl]]	14.7 ± 0.6	–	–	–	–	–	pKa* [1]: 9.56±0.04; time for completion of the catalytic reaction ([2]; 6 mol equiv of NAD+): 20.5 min; TOF D2O/MeOH-d4 ([2]; 23% MeOH-d4/77% D2O, NAD+ 2 mol equiv, formate 25 mol equiv, 310 K, pH* 7.2): 9.6 ± 0.3 h⁻¹; TOF D2O ([2]; D2O, NAD+ 2 mol equiv, formate 25 mol equiv, 310 K, pH* 7.2): 4.1 ± 0.1 h⁻¹; Binding constant for formation of 9-EtG adducts (9-ethylguanine): 92.8 ± 1.0 mM⁻¹
CS(=O)(=O)[N-]CCN.[Cl-].[Ru+2].c1ccc(-c2ccccc2-c2ccccc2)cc1 [Complex 5, [(o-terp)Ru(MsEn)Cl]]	12.4 ± 0.9	73.59 ± 0.04	71.9 ± 0.4	44.2 ± 0.2	5.8 ± 0.6%	2.8 ± 0.3	Cell accum. [5]: 2.8 ng Ru/10^6 cells
Cc1ccc(S(=O)(=O)[N-]CCN)cc1.[Cl-].[Ru+2].c1ccc(-c2ccccc2-c2ccccc2)cc1 [Complex 6, [(o-terp)Ru(TsEn)Cl]]	15.8 ± 0.8	72.8 ± 0.9	59 ± 3	43.6 ± 1.4	22.2 ± 0.8%	2.1 ± 0.4	–
NCC[N-]S(=O)(=O)c1ccc(C(F)(F)F)cc1.[Cl-].[Ru+2].c1ccc(-c2ccccc2-c2ccccc2)cc1 [Complex 7, [(o-terp)Ru(TfEn)Cl]]	21.2 ± 0.1	40 ± 2	20.8 ± 0.6	11.9 ± 0.6	2.5 ± 0.7%	2.4 ± 0.3	decrease in cell survival ([4]; A2780, formate increased from 0 to 2 mM): ca. 16 fold; Cell accum. [5]: 2.4 ng Ru/10^6 cells
NCCN.[Cl-].[Ru+2].c1ccc(-c2ccccc2)cc1 [Complex 8, [(bip)Ru(en)Cl]^+, reference compound]	2.17 ± 0.08	–	71 ± 1	61 ± 1	39 ± 1% and ~39%	–	IC50 [3, 6]: 2.2 µM; Cell viability percentages ([4]; acetate 0 mM): 75.4 ± 2%; Cell viability percentages ([4]; acetate 0.5 mM): 73.1 ± 0.8%; Cell viability percentages ([4]; acetate 1 mM): 72 ± 1%; free Ru in supernatant (calf thymus DNA; t = 0 h): 58.3 ± 0.3 µM; free Ru in supernatant (calf thymus DNA; t = 24 h): 48.5 ± 0.6 µM; binding to calf thymus DNA (calf thymus DNA; ICP-MS of Ru, up to 27 h at 310 K, 1:3 complex:DNA base pairs, 2 mM cacodylate pH 7.4, 2 mM NaCl): bind strongly; increase of melting temperature of CT-DNA (CT-DNA; 2 mM NaCl, 2 mM cacodylate buffer): -259 °C; increase of melting temperature of CT-DNA (CT-DNA; 20 mM NaCl): -266 °C; Tm (CT-DNA; 2 mM NaCl): 63.8 ± 0.8 °C; Tm (CT-DNA; 20 mM NaCl): 67.1 ± 0.6 °C; ΔTm (CT-DNA; versus free DNA, 20 mM NaCl): 7.9 °C
N.N.[Cl][Pt][Cl] [cisplatin, reference compound]	–	–	–	–	–	–	IC50 [3, 6]: 1.2 µM
O=C[O-].[Na+] [formate, sodium formate]	–	–	–	–	–	–	toxicity of formate itself to the cells ([4]; A2780, 0 to 2 mM): non-toxic
